Where only a bound is given, the exact number is not on record here.

Consider one compound from paper PMC5923142, “Selection and Characterization of Rupintrivir-Resistant Norwalk Virus Replicon Cells In Vitro” (Antimicrobial Agents and Chemotherapy, 2018).

For assay [1], the system named is HRV2 N165T. More on the design: method as in PMID 17908951. As to conditions: serial passage of HRV2 for 62 days; cited from earlier work.
Assay [2] relates to Norwalk virus replicon. Description: Norwalk virus replicon RNA level in HGT-NV cells by qRT-PCR. The format is cell-based, Human norovirus (HuNoV) GI. On the procedure: A human gastric tumor-1 (HGT-1) cell line ([29]) was used to establish a human norovirus replicon-harboring HGT (HGT-NV) cell line. In brief, viral protein genome (VPg)-linked RNA was isolated from BHK cells containing the Norwalk virus GI replicon and transfected into HGT-1 cells. HGT-NV replicon cells were selected in G418 (1 mg/ml), and limiting dilution was used to identify a clone with high viral RNA levels. The generated HGT-NV replicon cells were grown and maintained under G418 selection. The replicon-containing BHK cell line was generated by the transfection of in vitro-transcribed capped RNA from the cDNA construct of the Norwalk virus replicon ([9]), kindly provided by Kim Green (National Institutes of Health, Bethesda, MD, USA), into baby hamster kidney cells. Human embryonic kidney HEK293T cells were obtained from ATCC. The murine microglial BV-2 cell line was provided by Jennifer Pocock (University College London, London, UK). […]
The inhibitory effect of rupintrivir on HuNoV replication was assessed by quantification of the levels of GI NuNoV RNA and β-actin RNA as the reference gene. […] The real-time quantitative reverse transcription-PCR (qRT-PCR) assay was performed by using a One-Step Plus qRT-PCR kit according to the protocol of the manufacturer (Primer Design). […] Relative quantification was performed using the 2^−ΔΔCT threshold cycle (CT) method ([38]). […]
Background: In antiviral work, replicon cells carry a viral genome segment that copies itself.

Assay [3] addresses T1, GI A105V/I109V mutant protease (Norovirus, UniProt Q83883, A1205V/I1209V).
T1 construct: plasmids expressing norovirus protease from GI.1 (M87661); expressed in transfected cells; host or cells: HEK293T
Description: Cell-based FRET assay, GI A105V/I109V protease. On the set-up: species or system norovirus GI.1 (M87661). From the text: (§1) The generation of plasmids expressing norovirus protease from GI.1 (M87661), GII.4 (DQ658413), or GV (DQ285629) norovirus and FRET assay constructs has been described previously ([18]). The plasmids carrying GI, GII, and GV proteases with the A105V, I109V, or A105V/I109V mutation were generated from the wild-type (WT) protease constructs described above by the QuikChange site-directed mutagenesis method. Mutant MNV genomes for reverse genetics were generated by two-step PCR mutagenesis of the WT MNV genome (pT7 MNV 3RZ) construct as described previously ([27]). The primers used for generation of the plasmids are listed in Tables S1 and S2 in the supplemental material.
(§2) The YFP/CFP ratio was used to determine FRET efficiency, as described previously ([18], [40]). Briefly, HEK293T cells were plated into black 96-well cell culture microplates (Greiner Bio-One) at a density of 5 × 10^4 cells/well in 100 μl of DMEM containing 10% fetal bovine serum with or without various concentrations of rupintrivir and then incubated for 4 h in a CO2 incubator at 37°C. […] The plates were then analyzed on a SpectraMax i3 instrument in fluorescence mode, with excitation set at 434 nm and the reading emissions set at 477 nm (CFP) and 527 nm (YFP). The background fluorescence from wells transfected with pcDNA3.1 was determined and subtracted. […]

Assay [4] has as its target T2, GI I109V mutant protease (Norovirus, UniProt Q83883, I1209V).
T2 construct: plasmids expressing norovirus protease from GI.1 (M87661); expressed in transfected cells; host or cells: HEK293T
Description: Cell-based FRET assay, GI I109V protease. More on the design: species or system norovirus GI.1 (M87661).
Source text: as §1, §2

In assay [5] the target is T3, GV A105V protease (Norovirus, UniProt Q80J95, A1099V).
T3 construct: plasmids expressing norovirus protease from GI.1 (M87661), GII.4 (DQ658413), or GV (DQ285629) norovirus; expressed in transfected cells; host or cells: HEK293T
T3 sequence (Q80J95 995-1177 A1099V): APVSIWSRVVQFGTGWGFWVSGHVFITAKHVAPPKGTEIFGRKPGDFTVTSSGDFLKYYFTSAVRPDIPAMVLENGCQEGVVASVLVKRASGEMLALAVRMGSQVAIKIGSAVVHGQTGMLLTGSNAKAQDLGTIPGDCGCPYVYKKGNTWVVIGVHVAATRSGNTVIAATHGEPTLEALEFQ
Put plainly: Cell-based FRET assay, GV A105V protease. On the set-up: species or system murine norovirus (MNV) GV (DQ285629). Conditions: GV A105V vs GV WT.
Source text: as §1, §2

[6] abbreviates: HEK293T cells, GI NS1/2-NS3 FRET substrate.

T1 sequence (Q83883 1101-1281 A1205V/I1209V): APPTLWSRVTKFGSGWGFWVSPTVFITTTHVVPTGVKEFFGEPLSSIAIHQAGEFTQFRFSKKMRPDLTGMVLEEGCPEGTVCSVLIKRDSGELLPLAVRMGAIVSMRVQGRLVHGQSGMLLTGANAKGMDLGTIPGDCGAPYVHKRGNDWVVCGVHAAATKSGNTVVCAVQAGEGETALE
T2 sequence (Q83883 1101-1281 I1209V): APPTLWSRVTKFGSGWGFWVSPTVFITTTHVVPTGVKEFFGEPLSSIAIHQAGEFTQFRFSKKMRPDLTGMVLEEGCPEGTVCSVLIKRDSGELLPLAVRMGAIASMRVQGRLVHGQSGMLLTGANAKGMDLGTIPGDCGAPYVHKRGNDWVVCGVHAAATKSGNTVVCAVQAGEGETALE

For `CCOC(=O)/C=C/[C@H](C[C@@H]1CCNC1=O)NC(=O)[C@@H](CC(=O)[C@@H](NC(=O)c1cc(C)on1)C(C)C)Cc1ccc(F)cc1` [rupintrivir, Rupintrivir], in assay [1], the fold reduced susceptibility is listed as 2 fold. Moreover, in assay [2] (HGT-NV cells), the “selectivity index (CC50/EC50)” value is above 77. Moreover, the EC50 in assay [2] (Norwalk virus, 72 h, read-out: 50% effective concentration (EC50), replicon RNA) came to 1.3 ± 0.1 µM. The IC50 (usually the concentration that gives 50% inhibition) in assay [3] (setting [6]) is 6.6 ± 1.2 µM; in assay [4] (setting [6]) it was 4 ± 0.4 µM. Further, the “fold increase in IC50” value was 5.1 fold in assay [3] (vs GI WT protease) and 3.1 fold in assay [4] (vs GI WT protease). In addition, in assay [5], the “impact of substitution on susceptibility” value is “no appreciable impact”.
